Measurements from patent publication US20250171776A1, “NON-CANONICAL CELL-PENETRATING PEPTIDES FOR ANTISENSE OLIGOMER DELIVERY” (priority 2023, published 2025).
Read-outs that look alike come from different tables or passages of the source. Where no end group is shown, it is not given here. [ ]: non-standard residue; d: D form. Cit = NC(=O)NCCC[C@H](N)C(=O)O; Api = NC1(C(=O)O)CCNCC1; Dab = NCC[C@H](N)C(=O)O; Iph = iodophenylalanine

Tested on: HELA-654 cells
Assay: Hela-654 eGFP assay (incucyte imaging, GFP positive cells, 72 h)
Assay type: cell-based
Details: for Percentage of GFP Positive Cells at 72 hours (20 μM): alanine scan, 20 μM of PPMO; for EC50: 72 h; for Percentage of GFP Positive Cells at 72 hours (30 μM): Iph scan, 30 μM of compound
Procedure: HELA-654 cells were imaged at 72 hours with an incucyte and the number of GFP positive cells versus total cell counts were calculated with the incucyte image analysis software. Statistical analysis was conducted using a one-way analysis of variance (ANOVA) test with Dunnett's multiple comparison test. Bars represent mean±standard deviation (SD), with P<0.05 was considered to indicate statistical significance, (**** p<0.0001, *** […], ** p<0.01, * p<0.05).
HELA-654 cells were imaged at 72 hours with an incucyte and the number of GFP positive cells versus total cell counts were calculated with the incucyte image analysis software.

[1] = chimeric peptide PMO conjugates, read-out: EC50 (at 72 h)
[2] = CXP1 Dab analogs, read-out: EC50 (at 72 h)

Row | Substance | Percentage of GFP Positive Cells at 72 hours (20 μM) [%] | also measured
1 | Ala-Gln-Lys-Thr-Ser-Iph-Gly-Arg-Gly-Pip-Lys-Trp-Lys-Lys (AQKTS[Iph]GRG[Api]KWKK; also: PMO conjugate) [PMO-CXP1B] | 50.5 | 
2 | Cit-Met-Phe-Gly-Pip-Dab-Dab-Lys-Ala-Pro-Lys-Trp-Lys-Lys-Gly-Lys-Gln-Lys-Thr-Ser-Iph-Gly-Arg-Gly-Pip-Lys-Trp-Lys-Lys ([Cit]MFG[Api][Dab][Dab]KAPKWKKGKQKTS[Iph]GRG[Api]KWKK; also: PMO conjugate) [PMO-CXP4-CXP1] |  | EC50 [1]: 59.2 µM
3 | Dab-Gln-Dab-Thr-Ser-Iph-Gly-Arg-Gly-Dab-Dab-Trp-Dab-Dab-Lys-Trp-Lys-Lys ([Dab]Q[Dab]TS[Iph]GRG[Dab][Dab]W[Dab][Dab]KWKK; also: PMO conjugate) [PMO-CXP1AE] |  | EC50 [2]: 6.38 µM
4 | Dab-Gln-Dab-Thr-Ser-Iph-Gly-Arg-Gly-Pip-Dab-Trp-Dab-Dab-Lys-Trp-Lys-Lys ([Dab]Q[Dab]TS[Iph]GRG[Api][Dab]W[Dab][Dab]KWKK; also: PMO conjugate) [PMO-CXP1AC] |  | EC50 [2]: 4.75 µM
5 | Dab-Gln-Dab-Thr-Ser-Iph-Gly-Dab-Gly-Dab-Dab-Trp-Dab-Dab-Lys-Trp-Lys-Lys [PMO-CXP1AF] |  | EC50 [2]: 5.73 µM
6 | Dab-Gln-Dab-Thr-Ser-Iph-Gly-Dab-Gly-Pip-Dab-Trp-Dab-Dab-Lys-Trp-Lys-Lys [PMO-CXP1AD] |  | EC50 [2]: 5.64 µM
7 | Dab-Pro-Arg-Dab-Leu-His-Ser-Dab-Ala-Thr-Lys-Trp-Lys-Lys ([Dab]PR[Dab]LHS[Dab]ATKWKK; also: PMO conjugate) [PMO-CXP5] |  | EC50 (read-out: EC50 (at 72 h)): 10 µM
8 | Dab-Val-Ala-Arg-Asn-Asn-Dab-Thr-Lys-Gly-Lys-Trp-Lys-Lys-Gly-Lys-Gln-Lys-Thr-Ser-Iph-Gly-Arg-Gly-Pip-Lys-Trp-Lys-Lys [PMO-CXP3-CXP1] |  | EC50 [1]: 0.026 µM
9 | GCTATTACCTTAACCCAG (all phosphorodiamidate morpholino (PMO)) [reference compound] |  | EC50 (read-out: EC50 (at 72 h)): 22.7 µM
10 | Iph-Gln-Lys-Thr-Ser-Iph-Gly-Arg-Gly-Pip-Lys-Trp-Lys-Lys ([Iph]QKTS[Iph]GRG[Api]KWKK; also: PMO conjugate) [PMO-CXP1Q] |  | Percentage of GFP Positive Cells at 72 hours (30 μM): 85%
11 | Lys-Ala-Lys-Thr-Ser-Iph-Gly-Arg-Gly-Pip-Lys-Trp-Lys-Lys (KAKTS[Iph]GRG[Api]KWKK; also: PMO conjugate) [PMO-CXP1C] | 50.0 | 
12 | Lys-Gln-Ala-Thr-Ser-Iph-Gly-Arg-Gly-Pip-Lys-Trp-Lys-Lys (KQATS[Iph]GRG[Api]KWKK; also: PMO conjugate) [PMO-CXP1D] | 48.2 | 
13 | Lys-Gln-Iph-Thr-Ser-Iph-Gly-Arg-Gly-Pip-Lys-Trp-Lys-Lys (KQ[Iph]TS[Iph]GRG[Api]KWKK; also: PMO conjugate) [PMO-CXP1R] |  | Percentage of GFP Positive Cells at 72 hours (30 μM): 87.6%
14 | Lys-Gln-Lys-Ala-Ser-Iph-Gly-Arg-Gly-Pip-Lys-Trp-Lys-Lys (KQKAS[Iph]GRG[Api]KWKK; also: PMO conjugate) [PMO-CXP1E] | 70.5 | 
15 | Lys-Gln-Lys-Thr-Ala-Iph-Gly-Arg-Gly-Pip-Lys-Trp-Lys-Lys (KQKTA[Iph]GRG[Api]KWKK; also: PMO conjugate) [PMO-CXP1F] | 65.5 | 
16 | Lys-Gln-Lys-Thr-Ser-Ala-Gly-Arg-Gly-Pip-Lys-Trp-Lys-Lys (KQKTSAGRG[Api]KWKK; also: PMO conjugate) [PMO-CXP1G] | 55.8 | 
17 | Lys-Gln-Lys-Thr-Ser-Iph-Ala-Arg-Ala-Pip-Lys-Trp-Lys-Lys (KQKTS[Iph]ARA[Api]KWKK; also: PMO conjugate) [PMO-CXP1P] | 41.6 | 
18 | Lys-Gln-Lys-Thr-Ser-Iph-Ala-Arg-Gly-Pip-Lys-Trp-Lys-Lys (KQKTS[Iph]ARG[Api]KWKK; also: PMO conjugate) [PMO-CXP1H] | 65.5 | 
19 | Lys-Gln-Lys-Thr-Ser-Iph-Gly-Ala-Gly-Pip-Lys-Trp-Lys-Lys (KQKTS[Iph]GAG[Api]KWKK; also: PMO conjugate) [PMO-CXP1I] | 42.0 | 
20 | Lys-Gln-Lys-Thr-Ser-Iph-Gly-Arg-Ala-Pip-Lys-Trp-Lys-Lys (KQKTS[Iph]GRA[Api]KWKK; also: PMO conjugate) [PMO-CXP1J] | 53.2 | 
21 | Lys-Gln-Lys-Thr-Ser-Iph-Gly-Arg-Gly-Ala-Lys-Trp-Lys-Lys (KQKTS[Iph]GRGAKWKK; also: PMO conjugate) [PMO-CXP1K] | 39.3 | 
22 | Lys-Gln-Lys-Thr-Ser-Iph-Gly-Arg-Gly-Iph-Lys-Trp-Lys-Lys (KQKTS[Iph]GRG[Iph]KWKK; also: PMO conjugate) [PMO-CXP1T] |  | Percentage of GFP Positive Cells at 72 hours (30 μM): 36.5%
23 | Lys-Gln-Lys-Thr-Ser-Iph-Gly-Arg-Gly-Lys-Lys-Trp-Lys-Lys (KQKTS[Iph]GRGKKWKK; also: PMO conjugate) [PMO-CXP1Y] |  | EC50 (CXP1 analogs (unnatural amino acids replaced), read-out: EC50 (72 h)): 14.4 µM
24 | Lys-Gln-Lys-Thr-Ser-Iph-Gly-Arg-Gly-Pip-Ala-Trp-Lys-Lys (KQKTS[Iph]GRG[Api]AWKK; also: PMO conjugate) [PMO-CXP1L] | 41.8 | 
25 | Lys-Gln-Lys-Thr-Ser-Iph-Gly-Arg-Gly-Pip-Iph-Trp-Lys-Lys (KQKTS[Iph]GRG[Api][Iph]WKK; also: PMO conjugate) [PMO-CXP1U] |  | Percentage of GFP Positive Cells at 72 hours (30 μM): 66.4%
26 | Lys-Gln-Lys-Thr-Ser-Iph-Gly-Arg-Gly-Pip-Lys-Ala-Lys-Lys (KQKTS[Iph]GRG[Api]KAKK; also: PMO conjugate) [PMO-CXP1M] | 51.0 | 
27 | Lys-Gln-Lys-Thr-Ser-Iph-Gly-Arg-Gly-Pip-Lys-Trp-Ala-Lys (KQKTS[Iph]GRG[Api]KWAK; not fully specified (C-terminus); printed as Lys-Gln-Lys-Thr-Ser-Iph-Gly-Arg-Gly-Pip-Lys-Trp-Ala-Lys; also: PMO conjugate) [PMO-CXP1N] | 45.4 | 
28 | Lys-Gln-Lys-Thr-Ser-Iph-Gly-Arg-Gly-Pip-Lys-Trp-Iph-Lys [PMO-CXP1V] |  | Percentage of GFP Positive Cells at 72 hours (30 μM): 86.4%
29 | Lys-Gln-Lys-Thr-Ser-Iph-Gly-Arg-Gly-Pip-Lys-Trp-Lys-Ala-Lys-Trp-Lys-Lys (KQKTS[Iph]GRG[Api]KWKAKWKK; not fully specified (C-terminus); printed as Lys-Gln-Lys-Thr-Ser-Iph-Gly-Arg-Gly-Pip-Lys-Trp-Lys-Ala-Lys-Trp-Lys-Lys; also: PMO conjugate) [PMO-CXP1O] | 39.2 | 
30 | Lys-Gln-Lys-Thr-Ser-Iph-Gly-Arg-Gly-Pip-Lys-Trp-Lys-Iph-Lys-Trp-Lys-Lys (KQKTS[Iph]GRG[Api]KWK[Iph]KWKK; not fully specified (C-terminus); printed as Lys-Gln-Lys-Thr-Ser-Iph-Gly-Arg-Gly-Pip-Lys-Trp-Lys-Iph-Lys-Trp-Lys-Lys; also: PMO conjugate) [PMO-CXP1W] |  | Percentage of GFP Positive Cells at 72 hours (30 μM): 94.11%
